Results taken from US20070099947A1, “Methods and compositions for the treatment of brain reward system disorders by combination therapy” (Alkermes, Inc., priority 2005, published 2007).

Legend:
[1] = tested on: self-administration of ethanol; experiment: Operant self-administration of ethanol (lever presses for 10% ethanol cocktail); format: in vivo, Male Wistar rats; details: for Percent Change from Non-Drug Baseline: Repeated Dosing: Day 1 / Percent Change from Non-Drug Baseline: Repeated Dosing: Day 5 / Percent Change from Non-Drug Baseline: Single Dosing: lever presses for ethanol, naltrexone ED75 SC; for Percent Change from Non-Drug Baseline: Repeated Dosing: Day 1 / Percent Change from Non-Drug Baseline: Repeated Dosing: Day 5: once a day for 5 days; for effect on number of lever presses for ethanol over the dose range: naltrexone 0-6 mg/kg SC, 30 min before session; for Lever Presses (Mean ± SEM): 30 min session; for decrease in number of lever presses for ethanol compared to non-drug treated (baseline): naltrexone ED75 0.05-0.075 mg/kg SC alone
Description: Male Wistar rats (initial weight of 200±30 grams; Charles River Laboratories, MA) were individually housed with free access to food and water. The vivarium was maintained on a 12 hour light/dark cycle with a room temperature of 22±3° C.
Animals were trained daily in an operant chamber to press a lever to receive access to an ethanol cocktail as a reinforcer using a saccharin fading procedure. […] The final ethanol cocktail contained 10% ethanol in 0.04% saccharine. Each session lasted 30 minutes, during which the rat could press the lever twice to gain access to 0.1 mL of the ethanol cocktail. The operant chamber (Coulboume Instruments, Allentown, Pa.) is a computer-controlled automated system which recorded the number of lever presses completed by a rat. At the end of the training period (6-8 weeks), rats which consistently drank a minimum intake of 0.6 g/kg/hour of EtOH (approximately 60 bar presses) were selected to participate in the drug studies. These trained rats were used repeatedly throughout these studies to control for intra-subject variability. Assessments of drug effects were made following a single dosing, with a minimum of a 2 day drug washout period between arms of studies.
The ability of naltrexone to reduce ethanol drinking (i.e., decrease the number of lever presses) was assessed in this animal model of self administration of ethanol. […] The total number of lever presses was recorded over the 30 minute test session. […] In addition, oral activity was also assessed. […] The animals were tested in the operant chambers one hour later and the number of lever presses for ethanol was recorded for the 30 minute session.
This dose allows one to determine if the co-administered drugs impaired or enhanced naltrexone's effect on ethanol drinking. The drugs were administered orally 30 minutes prior to a naltrexone injection (SC), and 60 minutes prior to the beginning of the ethanol drinking test session. The number of lever presses for the ethanol cocktail was recorded at the end of the 30 minute session.
(§1) Repeated Dosing. The previous studies were conducted using a single dosing procedure. To determine if this drug interaction might be further enhanced with repeated daily dosing or conversely, the effect on decreasing alcohol self-administration is lost (due to tolerance) following multiple daily dosing, the study was repeated with a once-a-day for 5 days dosing procedure. […] Animals were tested on Day 1 and on Day 5.
as §1, with “study was” for “studies were”, “repeated” for “repeated daily”

[2] = Pharmacokinetic profile of opioid antagonists after IV, PO and SC administration; details: rat; for AUC(0-inf) / bioavailability: male, Sprague Dawley, in vivo
Description: Blood samples were collected for 6 hours post-dose. Concentrations of each parent drug were determined by LC/MS-MS. Pharmacokinetic parameters were determined by noncompartmental analysis.

[3] = tested on: morphine-induced analgesia; experiment: Hotplate test: inhibition of morphine-induced analgesia; format: in vivo, Male Wistar rats; details: 5 consecutive days SC dosing; first vs last day response latencies

With `Cc1c(C(=O)NN2CCCCC2)nn(-c2ccc(Cl)cc2Cl)c1-c1ccc(I)cc1` [AM-251] the “lever pressing for ethanol compared to non-drug treated conditions” value ([1]; AM-251 3.0 mg/kg alone) was “no effect”, the “Percent Change from Non-Drug Baseline: Repeated Dosing: Day 1” value ([1]; AM-251 1 mg/kg PO) was −2% and the “Percent Change from Non-Drug Baseline: Repeated Dosing: Day 5” value ([1]; AM-251 1 mg/kg PO) was “+19%”.

For `NC[C@H](CC(=O)O)c1ccc(Cl)cc1` [Baclofen, R(+)-Baclofen], the “lever pressing for ethanol compared to non-drug treated conditions” value ([1]; baclofen 3.0 mg/kg alone, p<0.01) was “significantly decreased the self-administration of ethanol”, the “Percent Change from Non-Drug Baseline: Repeated Dosing: Day 1” value ([1]; baclofen 0.3 mg/kg PO) was −35% and the “Percent Change from Non-Drug Baseline: Repeated Dosing: Day 5” value ([1]; baclofen 0.3 mg/kg PO) was −30%.

In the case of `O=C1CC[C@@]2(O)[C@H]3Cc4ccc(O)c5c4[C@@]2(CCN3CC2CC2)[C@H]1O5` [Naltrexone], the “effect on decreasing self-administration of ethanol” value ([1]; 0.5 mg/kg SC, 30 minutes prior to testing) is reported as “equivalent effects”, the “effect on decreasing self-administration of ethanol (oral activity)” value ([1]; 10 mg/kg oral gavage, tested one hour later) is reported as “only RDC-0313-01 was active” and the “ED75 (dose of naltrexone that produced a 25% decrease in lever responses for ethanol)” value ([1]; SC, titrated for each individual animal) is reported as 0.05 to 0.075 mg/kg. For the same compound, the “Percent Change from Non-Drug Baseline: Repeated Dosing: Day 1” value ([1]; AM-251 1 mg/kg PO) was −24%, the “Percent Change from Non-Drug Baseline: Repeated Dosing: Day 5” value ([1]; AM-251 1 mg/kg PO) was −19% and the “Percent Change from Non-Drug Baseline: Single Dosing” value ([1]; AM-251 PO) was −33%. For the same compound, the “Percent Change from Non-Drug Baseline: Repeated Dosing: Day 1” value ([1]; baclofen 0.3 mg/kg PO) was −43%, the “Percent Change from Non-Drug Baseline: Repeated Dosing: Day 5” value ([1]; baclofen 0.3 mg/kg PO) was −57% and the “Percent Change from Non-Drug Baseline: Single Dosing” value ([1]; baclofen PO) was −18%. The “decrease in lever presses versus baseline and vehicle control” value ([1]; lowest dose of naltrexone tested, 0.05 mg/kg) was “no significant decrease”, the “effect on number of lever presses for ethanol over the dose range” value [1] was “Suppresses the Self-Administration of Ethanol in a Dose-Dependent Manner” and the “effect on number of lever presses for ethanol over the dose range” value ([1]; listed as naltrexone) was “dose-dependent decrease in the number of lever presses”. For the same compound, the “Approximate Absolute Ethanol Consumed” value ([1]; naltrexone 0.05 mg/kg SC) was 1.0 g/kg, the “Lever Presses (Mean ± SEM)” value ([1]; naltrexone 0.05 mg/kg SC) was 132 ± 13.3 and the “Approximate Absolute Ethanol Consumed” value ([1]; naltrexone 0.1 mg/kg SC) was 0.7 g/kg. The “Lever Presses (Mean ± SEM)” value ([1]; naltrexone 0.1 mg/kg SC) was 88 ± 8.6, the “Approximate Absolute Ethanol Consumed” value ([1]; naltrexone 0.5 mg/kg SC) was 0.6 g/kg and the “Lever Presses (Mean ± SEM)” value ([1]; naltrexone 0.5 mg/kg SC) was 83 ± 12.1. For the same compound, the “Approximate Absolute Ethanol Consumed” value ([1]; naltrexone 1.0 mg/kg SC) was 0.3 g/kg, the “Lever Presses (Mean ± SEM)” value ([1]; naltrexone 1.0 mg/kg SC) was 43 ± 8.6 and the “Approximate Absolute Ethanol Consumed” value ([1]; naltrexone 3.0 mg/kg SC) was 0.2 g/kg. For the same compound, the “Lever Presses (Mean ± SEM)” value ([1]; naltrexone 3.0 mg/kg SC) was 24 ± 8.1, the “Approximate Absolute Ethanol Consumed” value ([1]; naltrexone 6.0 mg/kg SC) was 0.2 g/kg and the “Lever Presses (Mean ± SEM)” value ([1]; naltrexone 6.0 mg/kg SC) was 21 ± 5.5. For the same compound, the “effect on decreasing ethanol drinking at the higher doses” value ([1]; naltrexone 3 and 6 mg/kg) was “appeared to plateau”, the “decrease in number of lever presses for ethanol compared to non-drug treated (baseline)” value ([1]; AM-251 acute dosing study) was 32.5% and the “decrease in number of lever presses for ethanol compared to non-drug treated (baseline)” value ([1]; baclofen single dosing study) was 18%. The AUC(0-inf) ([2]; po, 10 mg/kg) was 0.15 µg·h/mL, the bioavailability ([2]; po, 10 mg/kg) was 3% and the AUC(0-inf) ([2]; sc, 0.1 mg/kg) was 0.0144 µg·h/mL. For the same compound, the bioavailability ([2]; sc, 0.1 mg/kg) was 31%, the absorption ([2]; PO or SC) was “rapidly absorbed” and the “development of tolerance in blocking morphine-induced analgesia” value [3] was “no development of tolerance”.
